The values that follow come from patent publication US20060269504A1, “Use of alkyl resorcinols in the treatment of acne” (priority 2003, published 2006).

Structures are written as SMILES. Values after ≈ are worked out from the molar mass of the structure shown. “Also recorded” adds a separate entry of the source. Like-named read-outs stand apart in the source and are kept apart here. Where only a bound is given, the exact number is not on record here.

In assay [1] the test system is Corynebacterium sp. NCIMB 40928. The assay is described as follows: In vitro corynebacterial model: pentadecanoic acid biotransformation to propionic acid (GC) and culture viability (TVC). It is filed as cell-based. Conditions: for BIC50, concentration at 50% inhibition of pentadecanoic acid biotransformation to propionic acid: aerobic, 35° C.; for BIC50 MoA(s), mode of action at BIC50 level: by reference to culture viability data; for MBC: read-out: MBC, minimum bactericidal levels. The protocol:
(§1) The propionibacterial model involved the use of 7 ml glass vials, to which were added 6.0 ml synthetic medium (see below), supplemented with glucose substrate (2.0 mg/ml). The corynebacterial model involved the use of 250 ml baffled shake flasks, to which were added 30.0 ml synthetic medium (see below), supplemented with fatty acid substrate (2.0 mg/ml pentadecanoic acid). To each vial or flask (other than controls) was also added one of the indicated test materials, from a 1.0-10.0% (w/v) stock solution in 50% (v/v) ethanol. Each assay was inoculated with fresh bacterial biomass (Propionibacterium acnes G63 [skin isolate], P. avidum NCTC 11864 or Corynebacterium sp. NCIMB 40928), pre-grown for 24-48 h, under aerobic (corynebacteria) or anaerobic (propionibacteria) conditions, in TSBT (see below), to give starting optical densities (A590) of ˜1.0. Following inoculation, the vials and flasks were incubated aerobically (corynebacteria) or anaerobically (propionibacteria) at 35° C., with agitation (120 rpm), for 24 h. After this time, culture viability was determined by total viable count (TVC) analysis on ACX plates (see below), following serial dilution in quarter-strength Ringers solution. Also, at the end of each experiment, the extent of glucose or fatty acid biotransformation to propionic acid was measured by capillary gas chromatography (GC) (see below), and the dose response data used to calculate, for each active ingredient, a BIC so value (50% biotransformation inhibition concentration). The mode of action (bacteriostatic or bactericidal) at this level was elucidated by reference to culture viability data, which was also used to determine the MBC (minimum bactericidal concentration), defined as the minimum level of each active effecting a >3 log10 ml^31 1 reduction in viability (Tables 1 & 2). Finally, the data for P. acnes G63 and P. avidum NCTC 11864 were combined to generate mean and range anti-propionibacterial values (Table 1).
(§2) KH2PO4 (1.6); (NH4)2HPO4 (5.0); Na2SO4 (0.38); KNO3 (0.1); NaHCO3 (1.0); sodium thioglycolate (1.0); sodium pyruvate (1.0); yeast nitrogen base (Difco) (3.35); MgCl2.6H2O (0.5).
(§3) Tryptone soya broth (Merck) (30.0); yeast extract (Beta Lab) (10.0); Tween 80™ (5.0).
(§4) blood agar base no. 2 (Oxoid) (39.5); yeast extract (Beta Lab) (3.0); glucose (2.0); Tween 80 ™ (5.0); defibrinated horse blood (50 ml/l).
(§5) 1.0 ml aliquots from each assay vial were transferred into sampling tubes, an internal standard (1.0 mg/ml caproic acid) added to each tube, and the culture medium acidified (pH˜2) by the addition of HCl. Liquid-liquid extraction was then carried out using 2 vol (2 ml) ethyl acetate, with organic and aqueous phases being resolved by centrifugation (2000 rpm, 2 min). ˜0.75 ml of each organic (upper) phase was then transferred to a fresh sampling tube prior to analysis on a Perkin Elmer 8000 (Series 2) GC fitted with a 15 m×0.32 mm (internal diameter) FFAP fused silica capillary column (film thickness 0.25 μm) (Quadrex). Metabolite levels were quantified by comparison of peak areas with known amounts of both internal (caproic acid) and externally-run (propionic acid) standards. GC running conditions as indicated: injector (split/splitless), 300° C.; detector (flame ionisation), 300° C.; oven, 80° C. (2 min), 80-155° C. (7.5° C./min), 155° C. (1 min); injection volume, 1.0 μl.

The test system of assay [2] is P. acnes G63 and P. avidum NCTC 11864. The assay is described as follows: In vitro propionibacterial model: glucose biotransformation to propionic acid (GC) and culture viability (TVC). The format is cell-based. The following applies: for BIC50 MoA(s), mode(s) of action at BIC50 levels: P. acnes G63 and P. avidum NCTC 11864, by reference to culture viability data; for BIC50, mean concentration at 50% inhibition of glucose biotransformation to propionic acid: mean of P. acnes G63 and P. avidum NCTC 11864, anaerobic, 35° C.; for BIC50, mean concentration at 50% inhibition of glucose biotransformation to propionic acid / MBC, range of minimum bactericidal levels: 24 h; for MBC, range of minimum bactericidal levels: range for P. acnes G63 and P. avidum NCTC 11864, minimum level effecting >3 log10 reduction in viability. The protocol:
as §1, §2, §3, §4, §5

Setting [3] is: Corynebacterium sp. NCIMB 40928, 24 h.
Setting [4] is: Corynebacterium sp. NCIMB 40928.

Turning to `Oc1cc(Cl)ccc1Oc1ccc(Cl)cc1Cl` [Triclosan, 2,4,4′-trichloro-2′-hydroxydiphenyl ether, reference compound], in assay [1] (setting [3]), the “BIC50, concentration at 50% inhibition of pentadecanoic acid biotransformation to propionic acid” value turned out to be 20 ppm. The “BIC50 MoA(s), mode of action at BIC50 level” value in assay [1] (setting [4]) is reported as “Bacteriostatic”. Further, in assay [1] (Corynebacterium, NCIMB40928, 24 h), the MBC was 50 µg/mL (≈ 173 µM). Besides, in assay [2], the “BIC50 MoA(s), mode(s) of action at BIC50 levels” value is “Bactericidal; also recorded: Bacteriostatic/”; the “BIC50, mean concentration at 50% inhibition of glucose biotransformation to propionic acid” value is listed as 39 ppm; the “MBC, range of minimum bactericidal levels” value is 50-100 ppm.

In the case of `CCCCCCc1ccc(O)cc1O` [4-Hexylresorcinol, 4-hexylresorcinol], in assay [1] (setting [3]), the “BIC50, concentration at 50% inhibition of pentadecanoic acid biotransformation to propionic acid” value is listed as 118 ppm. Moreover, in assay [1] (setting [4]), the “BIC50 MoA(s), mode of action at BIC50 level” value is on record as “Bacteriostatic”. In assay [1] (NCIMB40928, Corynebacterium sp. NCIMB 40928, minimum level effecting >3 log10 reduction in viability, 24 h), the MBC is above 500 µg/mL. Moreover, in assay [2], the “BIC50 MoA(s), mode(s) of action at BIC50 levels” value was “Bacteriostatic/; also recorded: Bactericidal”; the “BIC50, mean concentration at 50% inhibition of glucose biotransformation to propionic acid” value is reported as 42 ppm; the “MBC, range of minimum bactericidal levels” value is recorded as 50-100 ppm. Besides, the “selectivity for Propionibacterium spp. compared to other bacteria normally present on the skin” value in assay [2] (comparison of Tables 1 and 2, versus Triclosan) was “far greater selectivity than Triclosan”. Moreover, the “anti-propionibacterial properties compared with Triclosan” value in assay [2] (summary of Table 1) is given as “as good as those of Triclosan”.
